{"source": "patent US7498360B2", "about": "“Method and compositions for local treatment of Meniere's disease, tinnitus and/or hearing loss” (Synphora AB, priority 2001, dated 2009)", "key": {"[1]": {"system": "patients suffering from unilateral Meniere's disease", "assay": "Randomised, double-masked, placebo-controlled crossover clinical trial with latanoprost in Meniere's disease", "assay_type": "in vivo, human", "conditions": "for vertigo, visual analogue scale: decreasing values reflecting improvement", "description": "During the priority year, a randomised, double-masked, placebo-controlled clinical trial was performed by the inventors of the present patent application. Nine patients (5 males and 4 females; age 39-65 years) suffering from unilateral Meniere's disease were treated daily for three consecutive days with latanoprost (around 50 micrograms/ml) or placebo adopting a crossover design. Accordingly, each patient was treated with both latanoprost and placebo in random order. Each treatment period lasted for 3 days, and after that the patients were examined at days 5 and 15 from the start of the treatment. Approximately 1 month elapsed between the two treatment periods (washout period). The treatment was given by intratympanic injection (around 0.2-0.8 ml) into the middle ear essentially as described above. Several parameters/symptoms were registered and followed, in particular the following: Pure tone average (decibels), discrimination value (%), tinnitus loudness (decibels), and by using visual analogue scale technique; subjective hearing ability, tinnitus and vertigo. The patients recorded the three last mentioned parameters daily, and the means over the periods 2-5 days and 2-15 days after initiation of treatment with latanoprost and placebo were computed.\nSuch improvement was never observed during placebo treatment. At day 15 the mean discrimination value after latanoprost treatment was 68.2±7.2%, while it was 52.9±1.5% after placebo treatment, the difference of 29% being statistically significant at the p<0.05 level. Likewise, a statistically significant (p<0.01) improvement in pure tone average value at day 15 was found after latanoprost treatment in comparison to placebo, the values being 58.9±3.6 and 64.3±3.5 decibels, respectively (a lower value representing improvement). Finally, at least seven out of the nine patients experienced less vertigo both during the immediate period (days 2-5) after initiation of the latanoprost treatment as well as during a longer period (days 2-15) after the initiation of the latanoprost treatment. The values on the visual analogue scale (in mm; decreasing values reflecting improvement, i.e. less sensation of vertigo) were as follows: Days 2-5 latanoprost treatment: 22.4±9.1, and placebo treatment: 33.5±10.8 (p<0.05); Days 2-15 latanoprost treatment: 24.2±10.0 and placebo treatment: 34.2±11.4 (p<0.05)."}, "[2]": {"system": "patients suffering from unilateral Meniere's disease", "assay": "Local (intratympanic) administration of latanoprost to two patients suffering from Meniere's disease", "assay_type": "in vivo, human", "set-up": "key to Tinnitus (grade): 0 = none; 1 = mild; 2 = moderate; 3 = marked", "conditions": "for Tinnitus (grade): After (7 or 13 days after start of treatment), before: 3; for Acoustic emissions (%) 1 kHz / Acoustic emissions (%) 2 kHz / Acoustic emissions (%) 3 kHz / Acoustic emissions (%) 4 kHz / Acoustic emissions (%) 5 kHz / Acoustic emissions (%) Total reproducibility: After; for Acoustic emissions (%) 1 kHz / Acoustic emissions (%) 2 kHz / Acoustic emissions (%) 3 kHz / Acoustic emissions (%) 4 kHz / Acoustic emissions (%) 5 kHz: before: 0; for Subjective hearing ability: after treatment", "description": "[…] About 0.3-0.4 ml of a sterile Xalatan® (0.005% latanoprost) solution was administered by intratympanic installation in close apposition to the round window after appropriate local anaesthesia. The patients were thereafter asked to lie on the side with the treated ear up for about 30 min to enhance the penetration of latanoprost into the internal ear. The patients had at least 40 decibel decrease in the audiogram at 0.5, 1 and 2 kHz frequency, at baseline before treatment with latanoprost. In addition they suffered from episodes of vertigo and nausea in combination with tinnitus. Audiograms, and cochlear emissions were recorded before the treatment and at the 7th or 13th day after the start of the treatment, and information about the subjective symptoms were collected."}, "[3]": {"system": "endolymphatic duct structures / inner ear of pigmented guinea pigs", "assay": "Intratympanic administration of latanoprost to guinea pigs: tolerability, brain stem audiometry and morphology of the endolymphatic duct structures", "assay_type": "in vivo, guinea pig", "description": "Four pigmented guinea pigs of either sex weighing around 200-300 grams were anaesthetised with pentobarbital for intratympanic (into the middle ear) administration of latanoprost, and for brain stem audiometric measurements. The audiometric measurements were carried out at 8, 16 and 32 kHz frequency before and after the administration of latanoprost (58 μg/ml; a total of 250 μl/injection corresponding to about 14 μg latanoprost) and the vehicle. Latanoprost was administered once daily for three days into one ear, while the other ear received a similar injection of the vehicle only, and on the fourth day the animals were euthanatized with an overdose of the anaesthetic. The middle ears were dissected and the mucus membranes were inspected. Thereafter the inner ear was removed and the labyrinth was perfusion fixated through the oval and round windows with a 3% buffered glutaraldehyde solution. The tissues were then immersion fixated for about 24 hours in the same solution, and decalcified in 0.1 M sodium EDTA solution for about 2 weeks. The tissues were thereafter prepared according to routine techniques for light microscopy, and ultrathin sections of Epon-embedded tissue pieces were cut for transmission electron microscopy.\nMost importantly, in several animals clear-cut changes in the morphology around the endolymphatic duct were detected. […] These findings were corroborated by 3 persons. […] Similar effects have previously been seen in the ciliary muscle of the eye after topical treatment with latanoprost and other prostaglandins (Lütjen-Drecoll and Tamm, 1989; Lindsey et al., 1998; Stjernschantz et al., 1998)."}, "[4]": {"system": "vasculature in the cochlea", "conditions": "in vivo; cited from earlier work"}, "[5]": {"system": "patients with Meniere's disease", "conditions": "two patients with Meniere's disease, with furosemide; cited from earlier work"}, "[6]": {"conditions": "visual analogue scale, latanoprost vs placebo"}, "[7]": {"conditions": "two patients, after administration"}}}
{"smiles": "CC(C)OC(=O)CCC/C=C\\C[C@@H]1[C@@H](CC[C@@H](O)CCc2ccccc2)[C@H](O)C[C@@H]1O", "note": "[latanoprost, 13,14-dihydro-17-phenyl-18,19,20-trinor-PGF2α-isopropyl ester]", "values": [{"measurement": "vertigo, visual analogue scale", "setting": "[1]; Days 2-5, placebo 33.5±10.8, p<0.05", "result": "22.4±9.1", "unit": "mm"}, {"measurement": "vertigo, visual analogue scale", "setting": "[1]; Days 2-15, placebo 34.2±11.4, p<0.05", "result": "24.2±10.0", "unit": "mm"}, {"measurement": "patients (out of nine) who experienced less vertigo", "setting": "[1]; both days 2-5 and days 2-15 after initiation of treatment", "result": "at least seven"}, {"measurement": "cochlear emissions", "setting": "[1]; clinical trial", "result": "variable results"}, {"measurement": "difference in mean discrimination value versus placebo", "setting": "[1]; day 15, p<0.05", "result": 29, "unit": "%"}, {"measurement": "mean discrimination value", "setting": "[1]; day 15, placebo 52.9±1.5%, p<0.05", "result": "68.2±7.2", "unit": "%"}, {"measurement": "pure tone average value", "setting": "[1]; day 15, placebo 64.3±3.5, p<0.01, lower value representing improvement", "result": "58.9±3.6", "unit": "decibels"}, {"measurement": "improvement in discrimination value", "setting": "[1]; in three of the nine patients, after latanoprost treatment", "result": "25-50%"}, {"measurement": "tinnitus loudness", "setting": "[1]; latanoprost vs placebo", "result": "No statistically significant change"}, {"measurement": "Subjective hearing ability", "setting": "[1]; [6]", "result": "No statistically significant change"}, {"measurement": "subjective experience of tinnitus", "setting": "[1]; [6]", "result": "No statistically significant change"}, {"measurement": "Tinnitus (grade)", "setting": "[2]; patient one", "result": 1}, {"measurement": "Acoustic emissions (%) 1 kHz", "setting": "[2]; patient one", "result": 45, "unit": "%"}, {"measurement": "Acoustic emissions (%) 2 kHz", "setting": "[2]; patient one", "result": 0}, {"measurement": "Acoustic emissions (%) 3 kHz", "setting": "[2]; patient one", "result": 42, "unit": "%"}, {"measurement": "Acoustic emissions (%) 4 kHz", "setting": "[2]; patient one", "result": 0}, {"measurement": "Acoustic emissions (%) 5 kHz", "setting": "[2]; patient one", "result": 0}, {"measurement": "Acoustic emissions (%) Total reproducibility", "setting": "[2]; patient one, before: 5", "result": 37, "unit": "%"}, {"measurement": "Subjective hearing ability", "setting": "[2]; patient one", "result": "Improved"}, {"measurement": "Tinnitus (grade)", "setting": "[2]; patient two", "result": 2}, {"measurement": "Acoustic emissions (%) 1 kHz", "setting": "[2]; patient two", "result": 0, "unit": "%"}, {"measurement": "Acoustic emissions (%) 2 kHz", "setting": "[2]; patient two", "result": 57, "unit": "%"}, {"measurement": "Acoustic emissions (%) 3 kHz", "setting": "[2]; patient two", "result": 0, "unit": "%"}, {"measurement": "Acoustic emissions (%) 4 kHz", "setting": "[2]; patient two", "result": 0, "unit": "%"}, {"measurement": "Acoustic emissions (%) 5 kHz", "setting": "[2]; patient two", "result": 0, "unit": "%"}, {"measurement": "Acoustic emissions (%) Total reproducibility", "setting": "[2]; patient two, before: 10", "result": 37, "unit": "%"}, {"measurement": "Subjective hearing ability", "setting": "[2]; patient two", "result": "Improved"}, {"measurement": "audiograms", "setting": "[2]; [7]", "result": "no significant change"}, {"measurement": "cochlear emissions", "setting": "[2]; [7]", "result": "significantly improved"}, {"measurement": "patients' condition with respect to the tinnitus and hearing ability", "setting": "[2]; [7]", "result": "marked improvement"}, {"measurement": "brain stem audiograms", "setting": "[3]; guinea pig, 8, 16 and 32 kHz, before and after intratympanic administration", "result": "no changes that could be attributed to the treatment"}, {"measurement": "morphology around the endolymphatic duct", "setting": "[3]; guinea pig, in several animals, zone around fibroblasts in loose connective tissue surrounding the duct", "result": "reduced density of the extracellular matrix"}, {"measurement": "morphological changes in the cochlea including the organ of Corti with the hair cells", "setting": "[3]; guinea pig, intratympanic, about 14 μg once daily for three days", "result": "no morphological changes"}, {"measurement": "inflammatory changes in the mucous membranes of the middle ear or in the tympanic membrane", "setting": "[3]; guinea pig, intratympanic, about 14 μg once daily for three days, examined day 4", "result": "No inflammatory changes"}, {"measurement": "tolerability", "setting": "[3]; guinea pig, intratympanic, once daily for three days", "result": "well tolerated"}]}
{"smiles": "CCCCC[C@H](O)/C=C/[C@@H]1[C@@H](C/C=C\\CCCC(=O)O)[C@@H](O)C[C@H]1O", "note": "[PGF2α]", "values": [{"measurement": "effect on the vasculature in the cochlea", "setting": "[4]", "result": "no effect"}]}
{"smiles": "COc1ccc2c(c1)c(CC(=O)O)c(C)n2C(=O)c1ccc(Cl)cc1", "note": "[indomethacin]", "values": [{"measurement": "effect on the discrimination score", "setting": "[5]", "result": "block the effect of furosemide"}]}
